From US9718828B2 (MERCK SHARP & DOHME CORP., priority 2011, dated 2017) come the findings set out here.

The structures appear in SMILES notation. Structures can show the parent of a compound that is named as a salt.

Chain of Btk enzyme (His-Btk) (Q06187 whole entry): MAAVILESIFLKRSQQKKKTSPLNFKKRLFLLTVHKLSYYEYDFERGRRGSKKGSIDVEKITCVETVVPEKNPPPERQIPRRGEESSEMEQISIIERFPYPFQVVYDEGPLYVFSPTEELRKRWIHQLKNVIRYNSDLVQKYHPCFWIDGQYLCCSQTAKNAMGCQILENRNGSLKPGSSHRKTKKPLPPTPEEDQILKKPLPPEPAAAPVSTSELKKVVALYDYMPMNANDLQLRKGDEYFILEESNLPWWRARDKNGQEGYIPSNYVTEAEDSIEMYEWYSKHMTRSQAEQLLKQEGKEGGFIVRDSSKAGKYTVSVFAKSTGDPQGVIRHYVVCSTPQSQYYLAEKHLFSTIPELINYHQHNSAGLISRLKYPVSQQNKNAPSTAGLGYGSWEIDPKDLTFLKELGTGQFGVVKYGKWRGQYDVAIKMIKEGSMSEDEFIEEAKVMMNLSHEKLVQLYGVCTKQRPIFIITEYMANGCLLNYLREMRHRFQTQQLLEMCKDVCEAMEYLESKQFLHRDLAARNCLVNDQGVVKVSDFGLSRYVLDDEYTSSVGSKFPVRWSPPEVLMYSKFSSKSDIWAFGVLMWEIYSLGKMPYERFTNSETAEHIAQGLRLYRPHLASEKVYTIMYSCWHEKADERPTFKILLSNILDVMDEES
Chain of hBTK (full-length BTK, 6HIS-tag cleaved) (Q06187 whole entry): as above

One assay addresses Btk enzyme (His-Btk) (Homo sapiens (Human), UniProt Q06187). Nature of the assay: Btk enzyme activity, IMAP fluorescence polarization assay (Assay Method A).
Conditions: not given
In turn, `Nc1nccn2c([C@@H]3CCCN(C(=O)C4CCC4)C3)nc(-c3ccc(C(=O)Nc4cc(C5CC5)ccn4)cc3)c12` [Example 59, (R)-4-(8-amino-3-(1-(cyclobutanecarbonyl)piperidin-3-yl)imidazo[1,5-a]pyrazin-1-yl)-N-(4-cyclopropylpyridin-2-yl)benzamide] had an EC50 below 10 nM.

Compound `Cc1noc(C)c1C(=O)N1CCC[C@@H](c2nc(-c3ccc(C(=O)Nc4cc(C(F)(F)F)ccn4)cc3)c3c(N)nccn23)C1` [Example 74, (R)-4-(8-amino-3-(1-(3,5-dimethylisoxazole-4-carbonyl)piperidin-3 yl)imidazo[1,5-a]pyrazin-1-yl)-N-(4-(trifluoromethyl)pyridin-2-yl)benzamide] had an EC50 below 10 nM.

`CC1(C(=O)N2CCC[C@@H](c3nc(-c4ccc(C(=O)Nc5cc(C(F)(F)F)ccn5)cc4)c4c(N)ncc(C5CC5)n34)C2)COC1` [Example 303, (R)-4-(8-amino-5-cyclopropyl-3-(1-(3-methyloxetane-3-carbonyl)piperidin-3-yl)imidazo[1,5-a]pyrazin-1-yl)-N-(4-(trifluoromethyl)pyridin-2-yl)benzamide] registered an EC50 of 10 to 100 nM. The same measure, in the same setting: the same measure for `Nc1nccn2c(N3CCC3)nc(-c3ccc(C(=O)Nc4cc(C(F)(F)F)ccn4)cc3)c12` [Example 210, 4-(8-amino-3-(azetidin-1-yl)imidazo[1,5-a]pyrazin-1-yl)-N-(4-(trifluoromethyl)pyridin-2-yl)benzamide]: 10 to 100 nM; for `CCCc1ccnc(NC(=O)c2ccc(-c3nc(C)n4c(C(=O)NCCCOC)cnc(N)c34)cc2)c1` [Example 294, 8-amino-N-(3-methoxypropyl)-3-methyl-1-(4-(4-propylpyridin-2-ylcarbamoyl)phenyl)imidazo[1,5-a]pyrazine-5-carboxamide]: 100 to 1000 nM. Still for that read-out and setting: the same measure for `Nc1nccn2c([C@@H]3CCCN(C(=O)C(=O)C(F)(F)F)C3)nc(-c3ccc(C(=O)Nc4cc(C5CC5)ccn4)cc3)c12` [Example 115, (R)-4-(8-amino-3-(1-(3,3,3-trifluoro-2-oxopropanoyl)piperidin-3-yl)imidazo[1,5-a]pyrazin-1-yl)-N-(4-cyclopropylpyridin-2-yl)benzamide]: 100 to 1000 nM; for `Nc1ncnc2c1c(-c1ccc(C(=O)Nc3cc(C(F)(F)F)ccn3)cc1)nn2[C@@H]1CCCN(C(=O)[C@H]2CCCO2)C1` [Example 262, 4-(4-amino-1-((R)-1-((R)-tetrahydrofuran-2-carbonyl)piperidin-3-yl)-1H-pyrazolo[3,4-d]pyrimidin-3-yl)-N-(4-(trifluoromethyl)pyridin-2-yl)benzamide]: below 10 nM. The same measure, in the same setting: as for `CC(C)(C)C(=O)N1CCC[C@@H](c2nc(-c3ccc(C(=O)Nc4cc(C(F)(F)F)ccn4)cc3)c3c(N)nccn23)C1` [Example 76, (R)-4-(8-amino-3-(1-pivaloylpiperidin-3-yl)imidazo[1,5-a]pyrazin-1-yl)-N-(4-(trifluoromethyl)pyridin-2-yl)benzamide], the figure is below 10 nM; as for `Nc1nccn2c([C@@H]3CCCN(C(=O)C(F)(F)F)C3)nc(-c3ccc(C(=O)Nc4cc(C(F)(F)F)ccn4)cc3)c12` [Example 72, (R)-4-(8-amino-3-(1-(2,2,2-trifluoroacetyl)piperidin-3-yl)imidazo[1,5-a]pyrazin-1-yl)-N-(4-(trifluoromethyl)pyridin-2-yl)benzamide], below 10 nM; as for `Nc1nccn2c([C@@H]3CCCN(C(=O)C4CC4)C3)nc(-c3ccc(C(=O)Nc4ccccn4)cc3)c12` [Example 52, (R)-4-(8-amino-3-(1-(cyclopropanecarbonyl)piperidin-3-yl)imidazo[1,5-a]pyrazin-1-yl)-N-(pyridin-2-yl)benzamide], below 10 nM. For the compound `Nc1nccn2c(C3CC4CCC3N4C(=O)OCc3ccccc3)nc(-c3ccc(C(=O)Nc4ccccn4)cc3)c12` (centres unmarked) [Example 149, benzyl 2-(8-amino-1-(4-(pyridin-2-ylcarbamoyl)phenyl)imidazo [1,5-a]pyrazin-3-yl)-7-azabicyclo[2.2.1]heptane-7-carboxylate], the EC50 lay in the range of 10 to 100 nM.

`CN(C)C1(C(=O)N2CCC[C@@H](c3nc(-c4ccc(C(=O)Nc5cc(C(F)(F)F)ccn5)cc4)c4c(N)nccn34)C2)CC1` [Example 88, (R)-4-(8-amino-3-(1-(1-(dimethylamino)cyclopropane-carbonyl)piperidin-3 yl)imidazo[1,5-a]pyrazin-1-yl)-N-(4-(trifluoromethyl)pyridin-2-yl)benzamide] had an EC50 of 10 to 100 nM. On to `COCCC(=O)N1CCC[C@@H](c2nc(-c3ccc(C(=O)Nc4ccccn4)cc3C)c3c(N)nccn23)C1` [Example 285, 4-(8-amino-3-((R)-1-(3-methoxypropanoyl)piperidin-3-yl)imidazo[1,5-a]pyrazin-1-yl)-3-methyl-N-(pyridin-2-yl)benzamide, TFA salt], for which the EC50 was in the range of 10 to 100 nM.

The assay is the same for the next values; noted with them: read-out: EC50 Btk activity values - Assay Method A; IMAP-FP, 60 min pre-incubation, 5 μM ATP; class 100-1000 is given as ≧100 nM-<1 μM.
`CCCc1ccnc(NC(=O)c2ccc(-c3nc([C@H]4CC[C@H](O)CC4)n4ccnc(N)c34)cc2OC)c1` [Example 11, 4-(8-amino-3-((trans)-4-hydroxycyclohexyl)imidazo[1,5-a]pyrazin-1-yl)-2-methoxy-N-(4-propylpyridin-2-yl)benzamide]: the EC50 is below 10 nM. For `CCC(=O)C(=O)N1CCC[C@@H](c2nc(-c3ccc(C(=O)Nc4cc(C5CC5)ccn4)cc3)c3c(N)nccn23)C1` [Example 114, (R)-4-(8-amino-3-(1-(2-oxobutanoyl)piperidin-3 yl)imidazo[1,5-a]pyrazin-1-yl)-N-(4-cyclopropylpyridin-2-yl)benzamide], the EC50 was below 10 nM. Same read-out and setting: as for `Cc1ccnc(NC(=O)c2ccc(-c3nc([C@H]4CC[C@H](O)CC4)n4ccnc(N)c34)cc2)c1` [Example 5, 4-(8-amino-3-((trans)-4-hydroxycyclohexyl)imidazo[1,5-a]pyrazin-1-yl)-N-(4-methylpyridin-2-yl)benzamide], the figure is below 10 nM; as for `COCCC(=O)N[C@H]1CCC[C@@H](c2nc(-c3ccc(C(=O)Nc4cc(C(F)(F)F)ccn4)cc3)c3c(N)nccn23)C1` (relative stereo) [Example 158, 4-(8-amino-3-((cis)-3-(3-methoxypropanamido)cyclohexyl)imidazo [1,5-a]pyrazin-1-yl)-N-(4-(trifluoromethyl)pyridin-2-yl)benzamide], below 10 nM.

The next assay concerns the target hBTK (full-length BTK, 6HIS-tag cleaved) (Homo sapiens (Human), UniProt Q06187). Nature of the assay: BTK enzymatic activity, LANCE TR-FRET assay (Assay Method C). The format is biochemical. The following applies: LANCE TR-FRET, 50 pM hBTK, 25 μM ATP; class 100-1000 is given as ≧100 nM-<1 μM; read-out: IC50 Btk activity values - Assay Method C.
With `Nc1nccn2c([C@H]3CN(C(=O)C4CC4)CCO3)nc(-c3ccc(C(=O)Nc4cc(C(F)(F)F)ccn4)cc3F)c12` [Example 512, 4-{8-amino-3-[(2R)-4-(cyclopropylcarbonyl)morpholin-2-yl]imidazo[1,5-a]pyrazin-1-yl}-3-fluoro-N-[4-(trifluoromethyl)pyridin-2-yl]benzamide, TFA salt], the IC50 was below 10 nM.

On to `CC1(C(=O)N2CCO[C@@H](c3nc(-c4ccc(C(=O)Nc5cc(C(F)(F)F)ccn5)cc4F)c4c(N)nccn34)C2)COC1` [Example 513, 4-(8-amino-3-{(2R)-4-[(3-methyloxetan-3-yl)carbonyl]morpholin-2-yl}imidazo[1,5-a]pyrazin-1-yl)-3-fluoro-N-[4-(trifluoromethyl)pyridin-2-yl]benzamide, TFA salt], for which the concentration for half-maximal inhibition (IC50) is below 10 nM. On the same count and under the same terms, the same measure for `Cc1ccnc(NC(=O)c2ccc(-c3nn([C@@H]4CCCN(C(=O)C5(C)COC5)C4)c4ccnc(N)c34)cc2)c1` [Example 387, 4-(4-amino-1-{(3R)-1-[(3-methyloxetan-3-yl)carbonyl]piperidin-3-yl}-1H-pyrazolo[4,3-c]pyridin-3-yl)-N-(4-methylpyridin-2-yl)benzamide]: below 10 nM; for `CC1(C(=O)N2CCC[C@@H](c3nc(-c4ccc(C(=O)Nc5cc(C(F)(F)F)ccn5)cc4)c4c(N)ncc(C5(O)COC5)n34)C2)COC1` [Example 469, 4-[8-amino-5-(3-hydroxyoxetan-3-yl)-3-{(3R)-1-[(3-methyloxetan-3-yl)carbonyl]piperidin-3-yl}imidazo[1,5-a]pyrazin-1-yl]-N-[4-(trifluoromethyl)pyridin-2-yl]benzamide]: 10 to 100 nM; for `Nc1ncc(Cl)n2c([C@H]3CN(CC(F)(F)F)CCO3)nc(-c3ccc(C(=O)Nc4cc(C(F)(F)F)ccn4)cc3)c12` [Example 526, 4-{8-amino-5-chloro-3-[(2R)-4-(2,2,2-trifluoroethyl)morpholin-2-yl]imidazo[1,5-a]pyrazin-1-yl}-N-[4-(trifluoromethyl)pyridin-2-yl]benzamide]: below 10 nM. Still for that read-out and setting: the same measure for `CN(C)C(=O)N1C[C@@H](c2nc(-c3ccc(C(=O)Nc4cc(C(F)(F)F)ccn4)cc3)c3c(N)nccn23)CC[C@@H]1C(F)(F)F` [Example 426, (2R,5S)-5-[8-amino-1-(4-{[4-(trifluoromethyl)pyridin-2-yl]carbamoyl}phenyl)imidazo[1,5-a]pyrazin-3-yl]-N,N-dimethyl-2-(trifluoromethyl)piperidine-1-carboxamide]: below 10 nM. Still for that read-out and setting: the same measure for `C[C@H]1CC[C@@H](c2nc(-c3ccc(C(=O)Nc4cc(C(F)(F)F)ccn4)c(Cl)c3)c3c(N)nccn23)CN1C(=O)C1(C)COC1` [Example 400, 4-(8-amino-3-{(3R,6S)-6-methyl-1-[(3-methyloxetan-3-yl)carbonyl]piperidin-3-yl}imidazo[1,5-a]pyrazin-1-yl)-2-chloro-N-[4-(trifluoromethyl)pyridin-2-yl]benzamide]: below 10 nM; for `COCC(=O)N1CCO[C@@H](c2nc(-c3ccc(C(=O)Nc4cc(C(F)(F)F)ccn4)cc3)c3c(N)nccn23)C1` [Example 521, 4-{8-amino-3-[(2R)-4-(methoxyacetyl)morpholin-2-yl]imidazo[1,5-a]pyrazin-1-yl}-N-[4-(trifluoromethyl)pyridin-2-yl]benzamide]: below 10 nM.

The assay is the same for the next values; noted with them: Table D; Assay Method C (LANCE TR-FRET), 50 pM hBTK, 25 μM ATP; read-out: IC50 BTK activity value.
Take `C[C@H]1CC[C@@H](c2nc(-c3ccc(C(=O)Nc4cc(C(F)(F)F)ccn4)c(Cl)c3)c3c(N)nccn23)CN1C(=O)C1(C)COC1` [Example 400, 4-(8-amino-3-{(3R,6S)-6-methyl-1-[(3-methyloxetan-3-yl)carbonyl]piperidin-3-yl}imidazo[1,5-a]pyrazin-1-yl)-2-chloro-N-[4-(trifluoromethyl)pyridin-2-yl]benzamide]: the IC50 stood at 0.96 nM.
